Consider one compound from article PMC3367138, “Selective inhibitors of cardiac ADPR cyclase as novel anti-arrhythmic compounds” (Naunyn-Schmiedeberg's Archives of Pharmacology, 2012).

This test concerns the target T1, adenosine A2A receptor (Homo sapiens, UniProt P29274).
T1 construct: gene ADORA2A
Put plainly: radioligand displacement (agonist radioligand), single concentration […] in duplicate; […] of control remaining ([…] inhibition). It is filed as binding. In general terms: Loss of bound radioactivity is the signal in a displacement assay; it reports binding, not function.

T1 sequence (P29274 whole entry): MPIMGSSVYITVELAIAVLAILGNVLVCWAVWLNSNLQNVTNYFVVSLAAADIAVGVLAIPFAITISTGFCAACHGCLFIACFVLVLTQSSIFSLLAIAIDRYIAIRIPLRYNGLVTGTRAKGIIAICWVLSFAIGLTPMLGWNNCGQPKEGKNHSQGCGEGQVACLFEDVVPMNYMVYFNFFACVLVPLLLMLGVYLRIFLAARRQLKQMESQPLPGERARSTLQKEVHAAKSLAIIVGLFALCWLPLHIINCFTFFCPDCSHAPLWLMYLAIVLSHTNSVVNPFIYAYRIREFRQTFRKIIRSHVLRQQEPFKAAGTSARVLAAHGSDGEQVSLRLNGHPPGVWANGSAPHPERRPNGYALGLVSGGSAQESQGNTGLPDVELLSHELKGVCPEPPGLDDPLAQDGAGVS

Turning to `Cc1nn(Cc2cccc(C(=O)O)c2)c2nc(-c3ccncc3)[nH]c(=O)c12` [SAN4825], the inhibition – broadly, how much of the control response was suppressed – at 10 µM worked out at 81%.
